These results are taken from ChEMBL document CHEMBL5154777, “Alternative approaches utilizing click chemistry to develop next-generation analogs of solithromycin” (2022).

≈ marks a conversion by molar mass, not a printed value. Some results are limits rather than exact numbers.

Common to all, as to format: functional
Assay [1] has as its system Staphylococcus aureus. The assay is described as follows: Antibacterial activity against Staphylococcus aureus UCN17.
Assay [2] deals with Escherichia coli. The assay is described as follows: Antibacterial activity against Escherichia coli SQ171 2058G.
The test system of assay [3] is Staphylococcus aureus. Description: Antibacterial activity against Staphylococcus aureus ATCC 29213.
The subject of assay [4] is Escherichia coli. The assay is described as follows: Antibacterial activity against Escherichia coli DK.
Assay [5] has as its system Escherichia coli. Description: Antibacterial activity against Escherichia coli SQ171.
For assay [6], the system named is Escherichia coli. The assay is described as follows: Antibacterial activity against Escherichia coli DK2058G.
Assay [7] concerns Staphylococcus aureus. Description: Antibacterial activity against Staphylococcus aureus UCN14.
For assay [8], the system named is Escherichia coli. The assay is described as follows: Antibacterial activity against Escherichia coli DK3535.
For assay [9], the system named is Staphylococcus aureus. The assay is described as follows: Antibacterial activity against Staphylococcus aureus UCN18.

Take `CC[C@H]1OC(=O)[C@@](C)(F)C(=O)[C@H](C)[C@@H](O[C@@H]2O[C@H](C)C[C@H](N(C)CCCn3cc(-c4cccnc4)nn3)[C@H]2O)[C@](C)(OC)C[C@@H](C)C(=O)[C@H](C)C2N(CCCCn3cc(-c4cccc(N)c4)nn3)C(=O)O[C@@]21C` (single isomer, unassigned): the minimal inhibitory concentration (MIC) in assay [1] was greater than 130 µM; in assay [2] it was greater than 31 µM; in [3] it was 3.9 µM (≈ 3.97 µg/mL); in assay [4], 3.9 µM (≈ 3.97 µg/mL); in assay [5] it was greater than 31 µM; in assay [6] it was 7.9 µM (≈ 8.04 µg/mL). In addition, the MIC in assay [7] was greater than 130 µM; in [8], 7.9 µM (≈ 8.04 µg/mL); in assay [9], greater than 130 µM.
Take `C=CCN(C)[C@H]1C[C@@H](C)O[C@@H](O[C@@H]2[C@@H](C)C(=O)[C@](C)(F)C(=O)O[C@H](CC)[C@@]3(C)OC(=O)N(CCCCN=[N+]=[N-])C3[C@@H](C)C(=O)[C@H](C)C[C@@]2(C)OC)[C@@H]1O` (single isomer, unassigned): the minimum inhibitory concentration (MIC) is greater than 170 µM in assay [1]; greater than 42 µM in [2]; 0.66 µM (≈ 0.498 µg/mL) in [3]; 0.66 µM (≈ 0.498 µg/mL) in assay [4]; greater than 42 µM in assay [5]; 5.3 µM (≈ 4 µg/mL) in assay [6]. Also, the MIC in assay [7] was greater than 170 µM; in assay [8], 11 µM (≈ 8.29 µg/mL); in [9], greater than 170 µM.
On to `CC[C@H]1OC(=O)[C@@](C)(F)C(=O)[C@H](C)[C@@H](O[C@@H]2O[C@H](C)C[C@H](N(C)CCCn3cc(-c4cccc(N)c4)nn3)[C@H]2O)[C@](C)(OC)C[C@@H](C)C(=O)[C@H](C)C2N(CCCCn3cc(-c4cccc(N)c4)nn3)C(=O)O[C@@]21C` (single isomer, unassigned), for which the MIC in assay [1] is greater than 120 µM; in [2], greater than 31 µM; in assay [3] it was 0.97 µM (≈ 1 µg/mL); in assay [4] it was 3.9 µM (≈ 4.02 µg/mL); in assay [5] it was greater than 31 µM; in [6] it was 16 µM (≈ 16.5 µg/mL). The MIC in assay [7] is greater than 120 µM; in assay [8], 3.9 µM (≈ 4.02 µg/mL); in [9] it was greater than 120 µM.
With `CC[C@H]1OC(=O)[C@@](C)(F)C(=O)[C@H](C)[C@@H](O[C@@H]2O[C@H](C)C[C@H](N(C)C)[C@H]2O)[C@](C)(OC)C[C@@H](C)C(=O)[C@H](C)C2N(C/C=C/Cn3cc(-c4cccc(O)c4)nn3)C(=O)O[C@@]21C` (single isomer, unassigned), the minimal inhibitory concentration (MIC) in assay [1] is 9.5 µM (≈ 8.02 µg/mL); in assay [2], greater than 38 µM; in [3], less than 0.074 µM; in [4] it was 2.4 µM (≈ 2.03 µg/mL); in assay [5], greater than 38 µM; in assay [6], 2.4 µM (≈ 2.03 µg/mL). Moreover, the minimal inhibitory concentration (MIC) turned out to be 9.5 µM (≈ 8.02 µg/mL) in assay [7], 2.4 µM (≈ 2.03 µg/mL) in [8] and 4.7 µM (≈ 3.97 µg/mL) in assay [9].
On to `CC[C@H]1OC(=O)[C@@](C)(F)C(=O)[C@H](C)[C@@H](O[C@@H]2O[C@H](C)C[C@H](N(C)CCCCn3cc(-c4cccc(N)c4)nn3)[C@H]2O)[C@](C)(OC)C[C@@H](C)C(=O)[C@H](C)C2N(CCCCn3cc(-c4cccc(N)c4)nn3)C(=O)O[C@@]21C` (single isomer, unassigned), for which the MIC was greater than 120 µM in assay [1]; greater than 31 µM in assay [2]; 0.96 µM (≈ 1 µg/mL) in assay [3]; 7.7 µM (≈ 8.05 µg/mL) in assay [4]; greater than 31 µM in assay [5]; greater than 31 µM in assay [6]. Also, the MIC in [7] was greater than 120 µM; in assay [8], 3.8 µM (≈ 3.97 µg/mL); in assay [9], greater than 120 µM.
Consider `C=CCN(C)[C@H]1C[C@@H](C)O[C@@H](O[C@@H]2[C@@H](C)C(=O)[C@](C)(F)C(=O)O[C@H](CC)[C@@]3(C)OC(=O)N(CCCCn4cc(-c5cccc(N)c5)nn4)C3[C@@H](C)C(=O)[C@H](C)C[C@@]2(C)OC)[C@@H]1O` (single isomer, unassigned), for which the MIC in assay [1] was 150 µM (≈ 131 µg/mL); in assay [2], greater than 37 µM; in assay [3], 1.1 µM (≈ 0.958 µg/mL); in assay [4] it was 2.3 µM (≈ 2 µg/mL); in assay [5], greater than 37 µM; in [6], 2.3 µM (≈ 2 µg/mL). In addition, the MIC in [7] is greater than 150 µM; in assay [8] it was 4.6 µM (≈ 4.01 µg/mL); in assay [9], 150 µM (≈ 131 µg/mL).

As usually defined, the MIC is the smallest concentration in the dilution series that meets the test's criterion for growth inhibition. Low values mean inhibition by little substance, high ones a need for much substance.
